Measured values taken from patent US12098159B2, “Solid forms of substituted benzoxaborole and compositions thereof” (5Metis, Inc., priority 2018, dated 2024).

Legend:
Format in all cases: physicochemical
[1] = VT-XRPD and heating experiments: dehydration of (I) to (II) and conversion back
Method: The compound of formula (II) can be prepared by heating the compound of formula (I) under vacuum or by exposing the compound of formula (I) to dehydrating conditions.
To confirm this hypothesis, variable-temperature XRPD (VT-XRPD) and heating experiments were performed. […] The ^1H NMR results in FIG. 22B show no difference before and after heating, likely because the dehydrated product converted back to (I) after being exposed to residual water in DMSO-d6. TGA was also performed by heating (I) to 160° C. and cooling to room temperature, followed by re-heating to 160° C. after placed being placed under ambient conditions overnight. […] All the results were consistent with the hypothesis that dehydration and hydration reactions would occur during heating and exposure to air, respectively.

[2] = TGA weight loss (ramp, cycle and isothermal TGA)
Method: TGA data were collected using a TA Q5000/5500 TGA from TA Instruments. DSC was performed using a TA Q2000/2500 DSC from TA Instruments.
(§1) This difference was postulated to be caused by preferred orientation, since the morphology of Type A starting material was rod-like. A two-stage weight loss of 0.5% up to 100° C. and 10.0% from 100° C. to 160° C. was observed on the TGA curve. […] (onset temperature). The DVS isotherm plot of Type A was collected at 25° C. between 0 and 95% RH.
The results of VT-XRPD and heating experiment preliminarily confirmed the dehydration reaction. However, the theoretical weight loss of dehydration was calculated to be 5.4%, which was not consistent with the observed TGA weight loss of 10.0%. To further explain the difference on weight loss, the TGA data of Type A were re-visited. The results in FIG. 23B indicate that there might be 2 events involved in the TGA weight loss from 100° C. to 160° C., one of which is the dehydration of (I) (the theoretical weight loss of dehydration was close to the TGA weight loss up to 128° C.), while the other may be the complete decomposition or sublimation of the dehydrated product (if it's partial decomposition, the sample after heated should not convert back to (I) upon exposure to air).
Cycle TGA was conducted by heating Type A to 160° C. and cooling to 50° C. (with N2 purge, without exposure to air), followed by re-heating to 160° C. […] Isothermal TGA was conducted by heating Type A to 160° C. and isothermal at 160° C. for 0.5 hr. A weight loss of >20% was observed during the isothermal stage FIG. 24B, which was postulated to be decomposition/sublimation.

[3] = Dynamic vapor sorption (DVS) of Type A
Text: After preparation by the method described in Example 1, the starting material was characterized by X-ray powder diffraction (XRPD), thermo gravimetric analysis (TGA), differential scanning calorimetry (DSC), dynamic vapor sorption (DVS), high performance liquid chromatography (HPLC), and ^1H solution nuclear magnetic resonance (^1H NMR).
as §1

Clc1ccc2c(c1)COB2OB1OCc2cc(Cl)ccc21 [(II), 1,1′-oxybis(5-chloro-1,3-dihydrobenzo[c][1,2]oxaborole)]
XRPD pattern of dehydrated product after exposure to air ([1]; after heating to 140° C. with N2 purge, exposed in air for 3 hrs): converted back to Type A
behaviour on exposure to water ([1]; exposed to water): reverts to the compound of formula (I)

OB1OCc2cc(Cl)ccc21 [(I), 5-chlorobenzo[c][1,2]oxaborol-1(3H)-ol]
TGA weight loss ([2]; from 100° C. to 160° C.): 10.0%
cycle TGA weight loss on the re-heating curve ([2]; heated to 160° C., cooled to 50° C. with N2 purge, re-heated, up to 150° C.): 1.3%
isothermal TGA weight loss ([2]; isothermal at 160° C. for 0.5 hr): > 20%
Wt Loss on TGA (%, up to 100° C.) ([2]; up to 100° C.): 0.5%
XRPD after heating experiment ([1]; heated to 160° C. and cooled to RT, exposed to air): partial conversion to the dehydrated product (II)
water up-take (DVS) ([3]; 25° C./80% RH): 0.1%
form change after the DVS test (XRPD) ([3]; DVS at 25° C. between 0 and 95% RH): no form change was observed
